Measurements reported in patent US9260413B2, “Inhibitors of catechol O-methyl transferase and their use in the treatment of psychotic disorders” (Merck Sharp & Dohme Corp., priority 2013, dated 2016).
Read-outs that look alike come from different tables or passages of the source.

Target: purified human COMT enzyme of the Val158 variant (membrane-bound MB-COMT) (Homo sapiens (Human), UniProt P21964)
Assay: Esculetin or Fluorescence Polarization assay (MB-COMT)
Format: biochemical
Description: Assays utilized purified human COMT enzyme of the Val158 variant (membrane-bound MB-COMT or soluble S-COMT) containing a C-terminal 6 or 10-histidine tag.
In a typical experiment the COMT inhibitory activity of the compounds of the present invention was determined in accordance with the following experimental methods detailed below. The fluorescence assay was based on methylation of a substrate (6,7-dihydroxycoumarin or ‘esculetin’) by COMT to produce a highly fluorescent product (7-hydroxy-6-methoxycoumarin or ‘scopoletin’). The reaction requires the presence of magnesium ions and a methyl donor, in this case S-adenosylmethionine (SAM). […] Recombinant enzyme was diluted in assay buffer (100 mM Na2HPO4 pH 7.4, 1 mM DTT, 0.005% Tween-20) and 35 μL was added to assay wells containing 1 μL of compound. Preincubation of COMT enzyme and compound proceeded for 2 hours at room temperature. Enzyme assays were initiated with 5 uL of a mixture containing 40 μM SAM (USB catalog # US10601), 4 μM esculetin (substrate) and 40 mM MgCl2. The formation of product (seopoletin) was monitored over time by fluorescence (excitation 340 nm, emission 460 nm, no lag, 100 μs integration time, 5 flashes, top read) using a Tecan Safire^2 plate reader. Assays were monitored over time until a signal to background of 4 to 1 was achieved. Titration curves and IC50 values were calculated using standard procedures. […] In some cases, compounds were not preincubated with MB-COMT for 2 hours at room temperature prior to starting the enzyme assays.
To determine IC50 values in the fluorescence polarization assay, solutions of test compounds were prepared and preincubated with COMT enzyme as stated above. […] After 25 minutes incubation at room temperature, reactions were quenched with 5 μL 250 mM EDTA, […]. To quenched reactions, 20 μL of a preformed complex containing S-adenosyl-L-cysteine (SAC) TAMRA tracer (2 mM from Ana spec diluted 1:80,000) and a 1:20 dilution of anti-S-adenosyl-L-homocysteine antibody (mouse monoclonal from Abbott Homocysteine detection kit, catalog #7D29-20) was prepared in assay buffer 11 (Na2HPO4 pH 7.2). Prior to combining with quenched enzyme assays, the SAH antibody/SAC TAMRA tracer complex was preformed at room temperature for 30 minutes while protected from light. Therefore, the final concentration of the SAH antibody/SAC TAMRA mix was 1:60 and 1:240,000, respectively. […] Titration curves and IC50 values were calculated using standard protocols.

[1] = Esculetin or Fluorescence Polarization assay, Val158 variant

Structure (SMILES)	IC50 [1]	IC50
Cn1c(-c2ccc(Cl)c(C(F)(F)F)c2)ncc(O)c1=O [Example 1, 2-[4-chloro-3-(trifluoromethyl)phenyl]-5-hydroxy-3-methylpyrimidin-4(3H)-one]	180 nM	–
COc1ccc(Oc2cccc(-c3ncc(O)c(=O)n3C)c2)cc1 [Example 5, 5-hydroxy-2-[3-(4-methoxyphenoxy)phenyl]-3-methylpyrimidin-4(3H)-one]	–	93 nM
O=c1[nH]c(-c2ccc(C(F)(F)F)cc2)ncc1O [Example 6, 5-Hydroxy-2-(4-trifluoromethyl-phenyl)-3H-pyrimidin-4-one]	–	210 nM
O=c1[nH]c(-c2cccc(C#Cc3ccccc3)c2)ncc1O [Example 8]	590 nM	–
